Assay: Solubility of the lactam in 2-heptanone carrier oil
Type: physicochemical
Settings: 'also soluble at 1%' (0.5% solution used in the example)
Procedure: 2-heptanone was used as the carrier (oil phase) for the lactam at a ratio of 1:199 (Lactam:Heptanone) which equates to 0.5% lactam solution. The inventor(s) have determined that the lactam is also soluble at 1%. The isocyanate was polymethylene polyphenyl isocyanate (Mn340) and the crosslinker was hexamethylenediamine (HMDA). Emulsification was carried out at a shear of 15K. The stabiliser is a commercial naphthalene sulphonate called Morwet-D425®. Morwet forms dark brown solutions so the encapsulated slurry is often buff/brown coloured.

- solubility of lactam in 2-heptanone (carrier oil): ≥ 1%
SMILES: C=C1NC(=O)C=C1c1ccc(Cl)cc1 [Ref. 488, 4-(4-chlorophenyl)-5-methylene-pyrrol-2-one]
